# Data reported in patent publication US12390483B2, “Compounds and methods for treating neurological and cardiovascular conditions” (Astrocyte Pharmaceuticals, Inc., priority 2016, dated 2025).
# Tests used:
# [1] = test system: photothrombosis-induced stroke infarctions; assay: Photothrombosis-induced stroke in mice, TTC-stained brain infarction size; format: in vivo
# Protocol: Photothrombosis-induced Stroke: Photothrombosis was performed as described in Zheng et al 2010 (PloS One 5 (12): e14401). In brief, Rose Bengal is a fluorescent dye that when injected into the vasculature and excited, generates singlet oxygen that damages the endothelial wall and induces a local thrombosis (clot). Using this technique, mice were given a 0.1 mL tail-vein injection of sterilized Rose Bengal (RB, Sigma, U.S.A.) in artificial cerebral spinal fluid (aCSF). The RB concentration was 20 mg/mL. A cortical region was centered in the imaging field and illuminated with a green laser (543 nm, 5 mW) using a 0.8-NA 40× water-immersion objective (Nikon, Tokyo). The clot formation was monitored in real time until the targeted vessel or downstream capillaries were firmly occluded. Stable clots were subsequently identified by a non-fluorescent vessel segmentation ending with highly fluorescent regions. […] Treatments, MRS4322 (0.16 mg/kg; 0.5 μmol/kg) or MRS2365 (0.24 mg/kg; 0.5 μmol/kg) were introduced via intraperitoneal injections (i.p.). […] Animals and Photothrombosis-induced Stroke: Stroke was performed as described in Zheng et al 2010 (PloS One 5 (12): e14401). Female C57Bl/6 mice (4-6 months) were used in this study. From the methods of this manuscript: Mice were anesthetized at 3% isoflurane with 100% oxygen and subsequently maintained at 1% isoflurane through a nosecone. Depth of anesthesia was monitored and regulated according to vital signs, pinch withdrawal and eye blinks. Body temperature was maintained at 37° C. by a feedback-controlled heating pad (Gaymar T/Pump). Vital signs including oxygen saturation, respiratory rate, and heart rate were continuously monitored by using the MouseOx system (STARR Life Sciences). The hair on each mouse's head was trimmed and a small incision was made in the scalp to expose the skull. A custom-made stainless steel plate was glued to the skull with VetBond Tissue Adhesive (3M, St Paul, MN). A cranial thinned-skull imaging window was created over the right primary somatosensory cortex (˜1.5 mm posterior to Bregma and 2 mm lateral from midline) depending on the experiment. In brief, a large region of the skull was first thinned with the electric drill and then further thinned with a surgical blade. The final thickness of the thinned skull was approximately 50 μm. After the cranial imaging window was created, mice were transferred to microscope stage and used for photothrombosis or imaging experiments. For the repeat imaging experiments, the plate was carefully detached from the skull and the scalp was sutured (Ethicon 6-0 sild suture). After each experiment, the mice were either returned to cages until the next timepoint or sacrificed. All procedures were approved by the Institutional Animal Care and Use Committee (IACUC) at University of Texas Health Science Center at San Antonio. Thirty minutes following stroke or sham (uninjured), mice were treated with either vehicle (saline) or drugs (MRS4322, MRS2365, MRS5698 or Cl-IBMECA). Post photothrombotic infarction evaluation. The size of cerebral infarcts was evaluated using 2,3,5-Triphenyltetrazolium chloride (TTC) staining as described in Zheng et al 2010 (PloS One 5 (12): e14401). In brief, RB-induced lesions in brain slices were stained with TTC. TTC is a colorless dye that stains healthy brain tissue red when reduced by the mitochondrial enzyme succinyl dehydrogenase (Bederson J B et al., 1986). The absence of staining in necrotic tissue is then used to define the area of a brain infarction. Mice were sacrificed by cervical dislocation, their brains removed and then placed in ice cold HBSS for 3 minutes. […] The sections were fixed in 10% buffered formaldehyde solution overnight at 4° C. Slices were imaged on a flatbed scanner (HP scanjet 8300) for analysis of the lesion size at 1200 dpi. Photothrombosis-induced Stroke: Photothrombosis was performed as described in Zheng et al. 2010 (PloS One 5 (12): e14401). […]
# Human A3 = biological target: T1, Human A3 (Homo sapiens, UniProt P0DMS8); settings: J. Med. Chem. 2002 45:4471-4484 (Gao et al.); cited from earlier work
# T1 sequence (P0DMS8 1-318): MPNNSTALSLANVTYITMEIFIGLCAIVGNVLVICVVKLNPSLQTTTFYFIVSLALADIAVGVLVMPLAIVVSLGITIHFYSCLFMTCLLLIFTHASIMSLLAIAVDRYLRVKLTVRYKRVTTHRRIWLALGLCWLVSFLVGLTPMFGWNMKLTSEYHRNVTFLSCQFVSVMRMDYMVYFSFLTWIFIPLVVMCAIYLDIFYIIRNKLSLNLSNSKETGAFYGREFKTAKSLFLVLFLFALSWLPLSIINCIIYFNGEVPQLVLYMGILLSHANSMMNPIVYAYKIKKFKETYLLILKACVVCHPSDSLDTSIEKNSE
# GFAP expression = assay: Traumatic brain injury (TBI) in mice, Western blot analysis for GFAP; format: in vivo; settings: summary statement
# Protocol: Animals and traumatic brain injury (TBI): TBI was performed with a controlled closed skull injury model as described in […] al. 2012 (J. Neurotrauma 30, 55-66). Following the method described therein, a pneumatic impact device was used to generate a moderate TBI leaving the skull and dura matter intact. To achieve this, C57BL/6 mice were anesthetized with isoflurane (3% induction, 1% maintenance) in 100% oxygen. A body temperature of 37° C. was maintained using a temperature-controlled heated surgical table. A small midline incision was made on the scalp using aseptic surgical techniques. A 5 mm stainless steel disc was positioned on the skull and fixed using superglue on the right parietal bone between bregma and lamda over the somatosensory cortex. The mouse was then positioned on a stage directly under the pneumatic impact tip. […] Scalp incisions were closed using 4-0 nylon braided suture and antibiotic ointment applied to the incision. Mice were placed in a Thermo-Intensive Care Unit (Braintree Scientific model FV-1; 37° C.; 27% 02) and monitored until fully awake and moving freely. […] Western Blot Analysis for GFAP: At selected survival times, mice were anesthetized under isoflurane and sacrificed. The brain was removed and placed on ice for dissection into impacted and non-impacted brain hemispheres. […] The homogenate was transferred to a 2 mL tube and centrifuged at 1000 g for 10 minutes at 4° C. and the supernatant was collected and analyzed. Protein concentration was determined by the BCA assay using a 1:50 dilution. 100 μg of protein was removed as an aliquot for each sample and Laemmli buffer containing β-mercaptoethanol added and the sample placed in a heat block for 3 minutes at 95° C. Samples were loaded on a 12% gel and ran at 80 V for 20 minutes followed by 40 minutes at 130 V. Samples were transferred to nitrocellulose membrane at 100 V for 1 hour. The membrane was blocked with 5% milk in TBS-T for 30 minutes. GFAP (1:1000-Imgenex IMG-5083-A) was added and placed at 4° C. overnight. The membrane was washed with TBS-T three times for 10 minutes. Secondary antibody for GFAP (Donkey anti-rabbit HRP conjugated (ImmunoJackson Laboratories; 711-035-152; 1:20000) was applied at room temperature for 1 hour. The membranes were washed with TBS-T for 15 minutes (3 times) and developed using the Western Lightning Plus-ECL kit (PerkinElmer, Inc.) following manufacturer's directions.
# [2] = mouse plasma and tissue; Tosh et al. Purinergic Signalling (2015) 11:371-387; cited from earlier work
smiles,measurement,setting,value
Nc1nc(Cl)nc2c1ncn2[C@H]1[C@H](O)[C@H](O)[C@]2(CO)C[C@H]12 [MRS1873],size of the brain infarction (TTC staining),"[1]; Example 7: mice, 100 ul of 100 uM i.p. within 30 minutes of clot formation, 24 hours after stroke, versus vehicle",significantly reduced
same,EC50,Human A3,803 nM
"CCCOC(=O)c1c(-c2ccccc2)nc(CC)c(C(=O)SCC)c1CCC [MRS1523, reference compound]",effect of antagonist on neuroprotection of MRS4322 and MRS2365 treatments after stroke,[1]; MRS1523 2 mg/kg i.p. at 0 and 2 hours,inhibits neuroprotection
"CNC(=O)[C@H]1O[C@@H](n2cnc3c(NCc4cccc(I)c4)nc(Cl)nc32)[C@H](O)[C@@H]1O [Cl-IB-MECA, 2-Chloro-N^6-(3-iodobenzyl)-adenosine-5′-N-methyluronamide, reference compound]",efficacy in the mouse TBI model,GFAP expression,weakly active
"CNC(=O)[C@@]12C[C@@H]1[C@@H](n1cnc3c(NCc4cccc(Cl)c4)nc(C#Cc4ccc(F)c(F)c4)nc31)[C@H](O)[C@@H]2O [MRS5698, reference compound]",size of brain infarctions in mice pretreated with the A3 receptor antagonist MRS1523,"[1]; MRS1523 2 mg/kg i.p. at 0 and 2 hours, treatment within 30 minutes of clot formation, 24 hours",not reduced
same,protein binding reported in the literature,[2],99.88%
